What all share (test): combination Emax (second highest fraction inhibited in the dose matrix, 72 h); higher = more inhibition; extreme values may be limits of the assay
Test [1] has as its system HT-1080 (Other Solid Carcinomas). An outline of the steps:
(§1)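 After 24 hours at 37°C and 5% CO2 in 1536-well plates, cells in DMEM/F12 or RPMI plus 10% FBS received two-drug dose matrices for 72 hours. Viability came from CellTiter-Glo 2.0 luminescence and was scaled as inhibition, anchored at 0 by vehicle wells and at 1 by blank wells. Combination Emax is taken as the second-highest inhibition in the matrix, and Bliss excess as the observed combination effect less EA + EB − EA·EB, with EA and EB the single-agent effects.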

In test [2] the test system is SKG-IIIa (Cervical Carcinoma). The method in brief: as §1
For the next test, the system named is IST-MEL1 (Melanoma). The method in brief: as §1
Test [3] has as its system NCI-H1876 (Small Cell Lung Carcinoma). An outline of the steps:
as §1

For the next test, the system named is UACC-257 (Melanoma). The method in brief: as §1
In test [4] the test system is SNU-C2B (Colorectal Carcinoma). The method in brief:
as §1

Test [5] deals with NCI-H596 (Other Solid Carcinomas). The method in brief: as §1
The test system of another test is T47D (Breast Carcinoma). An outline of the steps: as §1
In test [6] the test system is CL-11 (Colorectal Carcinoma). An outline of the steps: as §1
Test [7] has as its system LS-1034 (Colorectal Carcinoma). An outline of the steps: as §1
In test [8] the test system is MDA-MB-415 (Breast Carcinoma). The method in brief:
as §1

The subject of the next test is KALS-1 (Glioblastoma). The method in brief:
as §1

The test system of test [9] is SNU-407 (Colorectal Carcinoma). The method in brief: as §1
In a further test the test system is AM-38 (Glioblastoma). The method in brief:
as §1

The subject of test [10] is MOLP-8 (Plasma Cell Myeloma). An outline of the steps:
as §1

For test [11], the system named is NCI-H1341 (Small Cell Lung Carcinoma). An outline of the steps: as §1
Test [12] has as its system NCI-H3118 (Head and Neck Carcinoma). The method in brief: as §1
In test [13] the test system is MM1S (Plasma Cell Myeloma). An outline of the steps: as §1
For test [14], the system named is RCC-JW (Kidney Carcinoma). The method in brief: as §1
For test [15], the system named is MOLT-13 (T-Lymphoblastic Leukemia). The method in brief:
as §1

Take `Cc1nc(Nc2ncc(C(=O)Nc3c(C)cccc3Cl)s2)cc(N2CCN(CCO)CC2)n1` [Dasatinib] + CC(=O)Nc1cccc(-n2c(=O)n(C3CC3)c(=O)c3c(Nc4ccc(I)cc4F)n(C)c(=O)c(C)c32)c1 [Trametinib] (first compound max 2 µM, 7x7, partner max 1 µM): the “combination Emax” value in [1] worked out at 0.61; in test [2], 0.5; with IST-MEL1 (Melanoma) it was 0.793; in [3] it was 0.165; in the test with UACC-257 (Melanoma) it was 0.644; in test [4], 0.66. Further, the “combination Emax” value turned out to be 0.607 in [5]; 0.344 in the test on T47D (Breast Carcinoma); 0.961 in [6]; 0.861 in test [7]; 0.385 in test [8]; 0.917 in the test on KALS-1 (Glioblastoma). The “combination Emax” value in [9] amounted to 0.756; with AM-38 (Glioblastoma), 0.713; in test [10] it was 0.621; in [11] it was 0.425; in test [12], 0.811; in test [13] it was 0.227. Besides, the “combination Emax” value in test [14] is 0.859; in test [15], 0.559.

For the compound `COc1cccc2c1C(=O)c1c(O)c3c(c(O)c1C2=O)C[C@@](O)(C(=O)CO)C[C@@H]3O[C@H]1C[C@H](N)[C@H](O)[C@H](C)O1` [Doxorubicin] + Cc1cc2ncnn2cc1Nc1ncc2c(n1)n(C1CCOCC1)c(=O)n2C [AZD7648] (first compound max 1 µM, 7x7, partner max 10 µM), the “combination Emax” value in test [1] worked out at 0.67; in test [2] it was 0.512; in the test on IST-MEL1 (Melanoma), 0.724; in test [3], 0.978; in the test on UACC-257 (Melanoma), 0.431; in test [4], 0.546. For the same compound, the “combination Emax” value in test [5] came to 0.295; with T47D (Breast Carcinoma), 0.64; in test [6], 0.602; in test [7], 0.376; in test [8], 0.568; in the test on KALS-1 (Glioblastoma), 0.832. Moreover, the “combination Emax” value in test [9] came to 0.406; in the test on AM-38 (Glioblastoma) it was 0.826; in [10], 0.915; in test [11], 0.905; in [12], 0.758; in test [13], 0.922. In addition, the “combination Emax” value in test [14] is 0.75; in test [15], 0.986.

For `COc1cc2ncnc(Nc3ccc(F)c(Cl)c3)c2cc1OCCCN1CCOCC1` [Gefitinib] + CC(C)n1c(=O)n(C)c2cnc3cc(F)c(-c4ccc(OCCCN5CCCCC5)nc4)cc3c21 [AZD1390] (first compound max 10 µM, 7x7, partner max 0.3 µM), the “combination Emax” value in test [1] is 0.0949; in test [2], 0.148; with IST-MEL1 (Melanoma), 0.0683; in [3], 0.178; in the test with UACC-257 (Melanoma), 0.053; in test [4], 0.246. Also, the “combination Emax” value in [5] turned out to be 0.269; with T47D (Breast Carcinoma) it was 0.147; in [6], 0.0239; in test [7] it was 0.117; in test [8], 0.191; in the test on KALS-1 (Glioblastoma), 0.127. For the same compound, the “combination Emax” value in test [9] came out at 0.168; with AM-38 (Glioblastoma), 0.123; in test [10], 0.413; in test [11], 0.108; in [12] it was 0.518; in [13], 0.217. Moreover, the figures for the “combination Emax” value in [14] and in test [15] were 0.226 and 0.311, respectively.

Turning to `CS(=O)(=O)CCNCc1ccc(-c2ccc3ncnc(Nc4ccc(OCc5cccc(F)c5)c(Cl)c4)c3c2)o1` [Lapatinib] + C[C@@H](Oc1cc(-c2cnn(C3CCNCC3)c2)cnc1N)c1c(Cl)ccc(F)c1Cl [Crizotinib] (first compound max 10 µM, 7x7, partner max 10 µM), the “combination Emax” value in [1] was 0.823; in [2], 0.733; in the test on IST-MEL1 (Melanoma) it was 0.811; in [3] it was 0.934; in the test on UACC-257 (Melanoma) it was 0.947; in [4] it was 0.753. Besides, the “combination Emax” value in test [5] amounted to 0.902; in the test with T47D (Breast Carcinoma), 0.525; in test [6] it was 0.928; in test [7] it was 0.946; in test [8], 0.633; in the test on KALS-1 (Glioblastoma), 0.801. Besides, the “combination Emax” value was found to be 0.966 in test [9]; 0.91 with AM-38 (Glioblastoma); 0.978 in test [10]; 0.898 in [11]; 0.928 in [12]; 0.962 in test [13]. Also, the “combination Emax” value in test [14] was 0.976; in test [15], 0.853.

Regarding `CC(=O)c1c(C)c2cnc(Nc3ccc(N4CCNCC4)cn3)nc2n(C2CCCC2)c1=O` [Palbociclib] + CC1(C)CCC(CN2CCN(c3ccc(C(=O)NS(=O)(=O)c4ccc(NCC5CCOCC5)c([N+](=O)[O-])c4)c(Oc4cnc5[nH]ccc5c4)c3)CC2)=C(c2ccc(Cl)cc2)C1 [Venetoclax] (first compound max 10 µM, 7x7, partner max 1 µM), the “combination Emax” value in test [1] came to 0.143; in test [2], 0.0106; with IST-MEL1 (Melanoma) it was 0.237; in test [3], 0.224; in the test with UACC-257 (Melanoma), 0.057; in test [4], 0.152. Further, the “combination Emax” value was 0.134 in [5]; 0.237 with T47D (Breast Carcinoma); 0.298 in [6]; 0.559 in test [7]; 0.155 in test [8]; 0.146 with KALS-1 (Glioblastoma). The “combination Emax” value in [9] was determined as 0.398; in the test on AM-38 (Glioblastoma), 0.328; in [10], 0.538; in test [11], 0.259; in [12], 0.318; in test [13], 0.308. For the same compound, the “combination Emax” value in [14] is 0.215; in test [15], 0.709.

On to `CC(=O)c1c(C)c2cnc(Nc3ccc(N4CCNCC4)cn3)nc2n(C2CCCC2)c1=O` [Palbociclib] + Cc1c2c(nn1C)CSCc1cc(n(C)n1)CSc1cc(c3ccccc3c1)OCCCc1c(C(=O)O)n(C)c3c-2c(Cl)ccc13 [AZD5991] (first compound max 10 µM, 7x7, partner max 1 µM), for which the “combination Emax” value in test [1] was 0.0542; in [2], 0.146; in the test on IST-MEL1 (Melanoma), 0.258; in [3], 0.534; with UACC-257 (Melanoma) it was 0.21; in [4], 0.365. The “combination Emax” value came to 0.349 in [5]; 0.413 in the test with T47D (Breast Carcinoma); 0.309 in [6]; 0.686 in [7]; 0.444 in test [8]; 0.229 with KALS-1 (Glioblastoma). For the same compound, the “combination Emax” value in test [9] worked out at 0.621; in the test with AM-38 (Glioblastoma), 0.405; in test [10], 1; in test [11], 0.374; in test [12] it was 0.426; in test [13], 0.26. The “combination Emax” value in test [14] worked out at 0.255; in test [15], 1.

Values taken from the supplement of paper PMC11061612.
